For experiment [1], the target named is T1, Lysosomal acid glucosylceramidase (Homo sapiens) (UniProt P04062).
T1 sequence (whole entry): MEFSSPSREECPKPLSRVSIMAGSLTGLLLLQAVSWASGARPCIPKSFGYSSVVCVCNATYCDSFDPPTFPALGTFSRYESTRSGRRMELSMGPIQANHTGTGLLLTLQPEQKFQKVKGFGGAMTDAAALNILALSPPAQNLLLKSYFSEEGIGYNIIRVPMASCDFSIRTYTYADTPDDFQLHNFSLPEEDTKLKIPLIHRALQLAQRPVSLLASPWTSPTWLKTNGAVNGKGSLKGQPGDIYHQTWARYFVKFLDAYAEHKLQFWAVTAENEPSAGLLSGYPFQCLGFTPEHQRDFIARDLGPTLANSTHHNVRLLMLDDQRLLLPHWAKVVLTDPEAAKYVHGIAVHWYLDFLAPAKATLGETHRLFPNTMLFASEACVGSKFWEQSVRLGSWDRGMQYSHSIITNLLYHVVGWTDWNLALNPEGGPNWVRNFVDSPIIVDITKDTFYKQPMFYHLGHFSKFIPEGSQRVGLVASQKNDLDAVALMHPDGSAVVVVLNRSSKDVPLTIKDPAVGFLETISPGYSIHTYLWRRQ
In words: In vitro beta--Glucocerebrosidase (beta-GlcCer'ase) activity in cultured human keratinocytes. Type of experiment: cell-based. Further details: reference not given here.

The species entered for experiment [2] is Mus musculus. The experiment is described as follows: […] effect on UVB-induced murine epidermal barrier disruption to control water loss in mice in experiment 1. Type of experiment: functional.
The species entered for experiment [3] is Mus musculus. The experiment is described as follows: […] effect on UVB-induced murine epidermal barrier disruption to control water loss in mice in experiment 2. Type of experiment: functional.

Each structure is given as a SMILES string.

`CCCCCCCCCCCCCCCC(=O)N[C@@H](CO[C@@H]1O[C@@H](CO)C(O)[C@H](O)[C@@H]1O)C(=O)NCCCCCCCCCCCCCC` (single isomer, unassigned) showed an Activity in experiment [1] of 1.37.
`CCCCCCCCCCCCCCNC(=O)[C@H](CO[C@@H]1O[C@@H](CO)C(O)[C@H](O)[C@@H]1O)NC(=O)CCCCCCC` (single isomer, unassigned): in experiment [1], the Activity was found to be 0.87.
Consider `CCCCCCCCCCCCCCCCCC(=O)N[C@@H](CO[C@@H]1O[C@@H](CO)C(O)[C@H](O)[C@@H]1O)C(=O)NCCCCCC` (single isomer, unassigned), for which the TEWL was determined as 2.01 in the experiment listed under Mus musculus [2] and 2.19 in the experiment filed under Mus musculus [3]. The compound further came in with an Activity in experiment [1] of 1.42.
On to `CCCCCCCCCCCCCCCCCC(=O)N[C@@H](CO[C@@H]1O[C@@H](CO)C(O)[C@H](O)[C@@H]1O)C(=O)NCCCCCCCCCC` (single isomer, unassigned), for which the Activity in experiment [1] was found to be 1.2.
In turn, `CCCCCCCCCCCCCCCCCC(=O)N[C@@H](CO[C@@H]1O[C@@H](CO)C(O)[C@H](O)[C@@H]1O)C(=O)NCCCCCCCCCCCCCC` (single isomer, unassigned) returned an Activity in experiment [1] of 1.24.
